Measured values reported in PubChem BioAssay AID248 (DTP/NCI, 2004).
Several values for one entry are separate records, joined by “and”; a condition that tells them apart may be missing. Equal entries are not always repeated. Inconclusive results and toxic doses are left out.

System: L1210 leukemia ip in BDF1 mice, survival T/C
Assay: NCI In Vivo Anticancer Drug Screen. Data for tumor model L1210 Leukemia (intraperitoneal) in B6D2F1 (BDF1) mice
Details: endpoint: mean survival time, higher = longer survival
Method in brief: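 Read-out is survival time, reported as the treated-group measurement over the vehicle-control measurement.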

[1] = dose: 100.0 mg/kg/injection, schedule: Q01DX001 (ip), vehicle: saline
[2] = dose: 200.0 mg/kg/injection, schedule: Q01DX001 (ip), vehicle: saline
[3] = dose: 400.0 mg/kg/injection, schedule: Q01DX001 (ip), vehicle: saline
[4] = dose: 100.0 mg/kg/injection, schedule: Q01DX001 (ip), vehicle: Klucel (hydroxypropylcellulose) (HPC)
[5] = dose: 200.0 mg/kg/injection, schedule: Q01DX001 (ip), vehicle: Klucel (hydroxypropylcellulose) (HPC)
[6] = dose: 100.0 mg/kg/injection, schedule: Q04DX003 (ip), vehicle: saline with Tween-80
[7] = dose: 200.0 mg/kg/injection, schedule: Q04DX003 (ip), vehicle: saline with Tween-80
[8] = dose: 100.0 mg/kg/injection, schedule: Q04DX002 (ip), vehicle: Klucel (hydroxypropylcellulose) (HPC)

COc1ccc(C(=O)c2cc3cccc(OC)c3o2)cc1OC
T/C (dose: 75.0 mg/kg/injection, schedule: Q01DX009 (ip), vehicle: saline): 87 % of control | T/C [1]: 102 % of control | T/C (dose: 150.0 mg/kg/injection, schedule: Q01DX009 (ip), vehicle: saline): 92 % of control | T/C [2]: 94 % of control | T/C (dose: 300.0 mg/kg/injection, schedule: Q01DX009 (ip), vehicle: saline): 93 % of control | T/C [3]: 93 % of control

CCCCCCCCCC(=S)N1CCN(c2ccccc2)CC1
T/C [1]: 95 % of control | T/C [2]: 93 % of control | T/C [3]: 90 % of control

Nc1[nH]cnc(=S)c1NC=O
T/C (dose: 100.0 mg/kg/injection, schedule: Q01DX001 (ip), vehicle: acetone): 92 % of control | T/C (dose: 200.0 mg/kg/injection, schedule: Q01DX001 (ip), vehicle: acetone): 92 % of control | T/C (dose: 400.0 mg/kg/injection, schedule: Q01DX001 (ip), vehicle: acetone): 88 % of control

CN(C)C1C=CS(=O)(=O)C1 (stereo not given)
T/C [4]: 106 % of control | T/C [5]: 106 % of control

CC(=O)OCCN1CCN(CCOC(C)=O)CC1
T/C [1]: 96 % of control | T/C [2]: 102 % of control | T/C [3]: 94 % of control

CC(C)=CCO
T/C (dose: 100.0 mg/kg/injection, schedule: Q01DX009 (ip), vehicle: saline): 96 % of control | T/C (dose: 200.0 mg/kg/injection, schedule: Q01DX009 (ip), vehicle: saline): 93 % of control | T/C (dose: 400.0 mg/kg/injection, schedule: Q01DX009 (ip), vehicle: saline): 88 % of control

NC(N)=NC(N)=Nc1ccc(Cl)cc1
T/C (dose: 100.0 mg/kg/injection, schedule: Q04DX003 (ip), vehicle: Klucel (hydroxypropylcellulose) (HPC)): 103 % of control

CSC(=S)NN
T/C (dose: 2.0 mg/kg/injection, schedule: Q04DX002 (ip), vehicle: saline): 113 % of control | T/C (dose: 4.0 mg/kg/injection, schedule: Q04DX002 (ip), vehicle: saline): 110 % of control | T/C (dose: 8.0 mg/kg/injection, schedule: Q04DX002 (ip), vehicle: saline): 94 % of control and 108 % of control

Nc1nc2nnc(CNc3ccc(C(=O)NC(CCC(=O)O)C(=O)O)cc3)nc2c(=O)[nH]1 (stereo not given)
T/C [4]: 94 % of control | T/C [5]: 103 % of control

O=[N+]([O-])c1ccc(Cl)c2c([N+](=O)[O-])cccc12
T/C [6]: 94 % of control | T/C [7]: 102 % of control

Cc1nc2cccc3ccc4cc5ccccc5c1c4c32
T/C [6]: 89 % of control | T/C [7]: 93 % of control

OC(CCN1CCOCC1)c1cc2ccccc2o1 (stereo not given)
T/C (dose: 75.0 mg/kg/injection, schedule: Q04DX003 (ip), vehicle: saline with Tween-80): 102 % of control | T/C (dose: 150.0 mg/kg/injection, schedule: Q04DX003 (ip), vehicle: saline with Tween-80): 100 % of control

Cc1cc(OC(=O)Nc2ccccc2C)ccc1Cl
T/C [8]: 111 % of control | T/C (dose: 200.0 mg/kg/injection, schedule: Q04DX002 (ip), vehicle: Klucel (hydroxypropylcellulose) (HPC)): 103 % of control | T/C (dose: 400.0 mg/kg/injection, schedule: Q04DX002 (ip), vehicle: Klucel (hydroxypropylcellulose) (HPC)): 118 % of control

CC(C)(C)c1ccc(OC(=O)Nc2cc(C(F)(F)F)ccc2Cl)c(Br)c1
T/C (dose: 100.0 mg/kg/injection, schedule: Q01DX009 (ip), vehicle: Klucel (hydroxypropylcellulose) (HPC)): 90 % of control | T/C (dose: 200.0 mg/kg/injection, schedule: Q01DX009 (ip), vehicle: Klucel (hydroxypropylcellulose) (HPC)): 97 % of control | T/C (dose: 400.0 mg/kg/injection, schedule: Q01DX009 (ip), vehicle: Klucel (hydroxypropylcellulose) (HPC)): 97 % of control

[Br][Bi]([Br])([c]1ccccc1)([c]1ccccc1)[c]1ccccc1
T/C (dose: 12.5 mg/kg/injection, schedule: Q04DX002 (ip), vehicle: Klucel (hydroxypropylcellulose) (HPC)): 97 % of control | T/C (dose: 25.0 mg/kg/injection, schedule: Q04DX002 (ip), vehicle: Klucel (hydroxypropylcellulose) (HPC)): 101 % of control | T/C (dose: 50.0 mg/kg/injection, schedule: Q04DX002 (ip), vehicle: Klucel (hydroxypropylcellulose) (HPC)): 104 % of control | T/C [8]: 97 % of control

Cc1nc(N)nc(N)c1-c1ccccc1
T/C (dose: 100.0 mg/kg/injection, schedule: Q01DX001 (ip), vehicle: carboxymethylcellulose (CMC)): 100 % of control | T/C (dose: 200.0 mg/kg/injection, schedule: Q01DX001 (ip), vehicle: carboxymethylcellulose (CMC)): 94 % of control | T/C (dose: 400.0 mg/kg/injection, schedule: Q01DX001 (ip), vehicle: carboxymethylcellulose (CMC)): 92 % of control

COc1ccc(C(O)CCN2CCCCC2)cc1 (stereo not given)
T/C (dose: 100.0 mg/kg/injection, schedule: Q01DX001 (ip), vehicle: saline with Tween-80): 112 % of control

O=c1ccn(Cc2ccccc2)c(=S)[nH]1
T/C (dose: 50.0 mg/kg/injection, schedule: Q01DX001 (ip), vehicle: saline): 97 % of control | T/C [1]: 94 % of control | T/C [2]: 97 % of control | T/C [3]: 100 % of control
